The source of these data is US12441720B2, “Modulators of the integrated stress response pathway” (EVOTEC INTERNATIONAL GMBH, priority 2020, dated 2025).

The test system of one experiment is ATF4. As to the kind of experiment: HEK-ATF4 High Content Imaging assay (prevention of Tunicamycin induced ISR). The conditions noted are these: Homo sapiens, wild-type HEK293 cells, 6 hrs incubation, ATF4 signal ratio nucleus/cytoplasm, read-out: Activity (IC50, HEK-ATF4 readout). The format is cell-based. The method, then:
Example compounds were tested in the HEK-ATF4 High Content Imaging assay to assess their pharmacological potency to prevent Tunicamycin induced ISR. Wild-type HEK293 cells were plated in 384-well imaging assay plates at a density of 12,000 cells per well in growth medium (containing DMEM/F12, 10% FBS, 2 mM L-Glutamine, 100 U/mL Penicillin—100 μg/mL Streptomycin) and incubated at 37° C., 5% CO2. 24-hrs later, the medium was changed to 50 μl assay medium per well (DMEM/F12, 0.3% FBS, 2 mM L-Glutamine, 100 U/mL Penicillin—100 μg/mL Streptomycin). Example compounds were serially diluted in dimethyl sulfoxide (DMSO), spotted into intermediate plates and prediluted with assay medium containing 3.3 μM Tunicamycin to give an 11-fold excess of final assay concentration. In addition to the example compound testing area, the plates also contained multiples of control wells for assay normalization purposes, wells containing Tunicamycin but no example compounds (High control), as well as wells containing neither example compound nor Tunicamycin (Low control). The assay was started by transferring 5 μl from the intermediate plate into the assay plates, followed by incubation for 6 hrs at 37° C., 5% CO2. Subsequently, cells were fixed (4% PFA in PBS, 20 min at room temperature) and submitted to indirect ATF4 immunofluorescence staining (primary antibody rabbit anti ATF4, clone D4B8, Cell Signaling Technologies; secondary antibody Alexa Fluor 488 goat anti-rabbit IgG (H+L), Thermofisher Scientific). Nuclei were stained using Hoechst dye (Thermofisher Scientific), and plates were imaged on an Opera Phenix High Content imaging platform equipped with 405 nm and 488 nm excitation. Finally, images were analyzed using script based algorithms. The main readout HEK-ATF4 monitored the ATF4 signal ratio between nucleus and cytoplasm. Tunicamycin induced an increase in the overall ATF4 ratio signal, which was prevented by ISR modulating example compounds. In addition, HEK-CellCount readout was derived from counting the number of stained nuclei corresponding to healthy cells. This readout served as an internal toxicity control.

Experiment [1] has as its target T1, human ERG potassium channel (hERG) (Homo sapiens, UniProt Q12809).
T1 construct: expressed in transfected cells; host or cells: HEK293, stably transfected, tetracycline-inducible
Put plainly: hERG tail current recording, Rapid ICE automated patch-clamp (QPatch HTX). Format: cell-based. Conditions: recombinant HEK293 cell line stably transfected with hERG cDNA; test concentrations 0.3, 3 and 30 μM; read-out: hERG Activity (IC50, tail current inhibition). The protocol: The potency of the example compounds in inhibiting human ERG potassium channel (hERG) tail current was assessed in a recombinant HEK293 cell line stably transfected with hERG cDNA under an inducible promoter, using Rapid ICE (rapid ion channel electrophysiology) assay. Rapid ICE is an automated patch-clamp assay utilizing the QPatch HTX system (Sophion Bioscience A/S). Briefly, inducible HEK hERG cells were cultivated in minimum essential medium supplemented with 10% FBS, 1% non-essential amino acids, 1% sodium pyruvate, 2 mM 1-glutamine, 15 μg/mL blasticidin, and 100 μg/mL hygromycin. hERG channel expression induction was obtained by adding 10 μg/mL tetracycline for 24, 48, or 72 h before recordings.
On the day of the experiment, cells were detached with TrypLE and prepared to be loaded on the instrument. Cells were resuspended in 7 mL of Serum-Free Media containing 25 mM Hepes and soybean trypsin inhibitor and immediately placed in the cell storage tank of the machine. The composition of the extracellular buffer was (mM): NaCl 137, KCl 4, CaCl2 1.8, MgCl2 1.0, d-glucose 10, N-2-hydroxyethylpiperazine-N′-2-ethanesulfonic acid (HEPES) 10, pH 7.4 with 1 M NaOH. The composition of the intracellular solution was (mM): KCl 130, MgCl2 1.0, ethylene glycol-bis(β-aminoethyl ether)-N,N,N′,N′-tetraacetic acid (EGTA) 5, MgATP 5, HEPES 10, pH 7.2 with 1 M KOH. The voltage protocol included the following steps: step from −80 to −50 mV for 200 ms, +20 mV for 4.8 s, step to −50 mV for 5 s, then step to the holding potential of […]. Example compounds were dissolved in DMSO and diluted in extracellular buffer to achieve final test concentrations (0.3, 3, and 30 μM) in 0.3% DMSO. The voltage protocol was run and recorded continuously during the experiment. The vehicle, corresponding to 0.3% DMSO in extracellular buffer was then applied for 3 min, followed by the example compound in triplicate. The standard combined exposure time was 5 min. The average of tail current amplitude values recorded from four sequential voltage pulses was used to calculate for each cell the effect of the example compound by calculating the residual current (% control) compared with vehicle pretreatment. Data were reported as % inhibition for each concentration tested, and IC50 values were estimated using QPatch software. At least two cells were tested, and even more if results diverged.
A general note: hERG is a cardiac potassium channel; its block is linked to QT prolongation.

Each structure is given as a SMILES string. pIC50: −log10 of the molar value. Some results are limits rather than exact numbers.

T1 sequence (Q12809 whole entry): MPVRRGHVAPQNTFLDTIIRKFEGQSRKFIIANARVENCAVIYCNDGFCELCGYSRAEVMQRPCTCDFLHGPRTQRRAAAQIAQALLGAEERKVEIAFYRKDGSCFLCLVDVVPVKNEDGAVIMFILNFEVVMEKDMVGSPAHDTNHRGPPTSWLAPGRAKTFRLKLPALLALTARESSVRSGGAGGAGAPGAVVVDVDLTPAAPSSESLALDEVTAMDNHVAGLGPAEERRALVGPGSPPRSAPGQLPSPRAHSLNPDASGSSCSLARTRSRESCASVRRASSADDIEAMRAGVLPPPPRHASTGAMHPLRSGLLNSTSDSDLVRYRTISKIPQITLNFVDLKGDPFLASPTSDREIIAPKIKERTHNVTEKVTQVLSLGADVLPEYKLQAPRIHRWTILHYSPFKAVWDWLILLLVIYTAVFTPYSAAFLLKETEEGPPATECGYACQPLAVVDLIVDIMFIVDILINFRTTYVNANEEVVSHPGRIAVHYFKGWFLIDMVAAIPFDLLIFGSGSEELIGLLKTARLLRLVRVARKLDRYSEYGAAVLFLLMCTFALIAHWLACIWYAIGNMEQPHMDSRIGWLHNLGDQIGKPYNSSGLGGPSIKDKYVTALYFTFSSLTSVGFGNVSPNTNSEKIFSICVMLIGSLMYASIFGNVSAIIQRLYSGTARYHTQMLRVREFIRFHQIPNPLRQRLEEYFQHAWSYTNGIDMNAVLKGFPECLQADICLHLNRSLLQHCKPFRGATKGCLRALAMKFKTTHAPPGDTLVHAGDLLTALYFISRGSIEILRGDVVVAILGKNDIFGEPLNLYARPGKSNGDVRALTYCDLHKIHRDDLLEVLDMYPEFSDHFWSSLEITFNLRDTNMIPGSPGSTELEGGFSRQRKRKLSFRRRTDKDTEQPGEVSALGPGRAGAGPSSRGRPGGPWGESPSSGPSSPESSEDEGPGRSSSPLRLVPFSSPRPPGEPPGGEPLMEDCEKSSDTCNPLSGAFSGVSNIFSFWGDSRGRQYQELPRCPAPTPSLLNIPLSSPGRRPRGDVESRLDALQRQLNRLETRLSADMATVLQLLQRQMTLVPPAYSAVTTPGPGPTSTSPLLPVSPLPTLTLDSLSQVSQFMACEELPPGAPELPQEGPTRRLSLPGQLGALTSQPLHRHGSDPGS

Broadly, the pIC50 is the IC50 on a negative log10 scale, so that one unit is a factor of ten. On to `O=C(COc1ccc(Cl)c(F)c1)N[C@H]1CO[C@H](c2nnc(OCCCC(F)(F)F)o2)OC1` [Example 5, 2-(4-chloro-3-fluorophenoxy)-N-[trans-2-[5-(4,4,4-trifluorobutoxy)-1,3,4-oxadiazol-2-yl]-1,3-dioxan-5-yl]acetamide], for which the results for the pIC50 (with ATF4; in experiment [1]) were 6.30 to 9.00 and 5.30 to 6.00, respectively. The matching figures for `O=C(COc1ccc(C(F)F)c(Cl)c1)N[C@H]1CO[C@H](c2nnc(N3CC(OC(F)(F)F)C3)o2)OC1` [Example 8, 2-[3-chloro-4-(difluoromethyl)phenoxy]-N-[trans-2-{5-[3-(trifluoromethoxy)azetidin-1-yl]-1,3,4-oxadiazol-2-yl}-1,3-dioxan-5-yl]acetamide]: 6.30 to 9.00 and under 5.30. Take `O=C(COc1cnc(Cl)c(F)c1)N[C@H]1CO[C@H](c2nnc([C@H]3C[C@@H](OC(F)(F)F)C3)o2)OC1` [Example 10, 2-[(6-chloro-5-fluoro-3-pyridyl)oxy]-N-[trans-2-[5-[cis-3-(trifluoromethoxy)cyclobutyl]-1,3,4-oxadiazol-2-yl]-1,3-dioxan-5-yl]acetamide]: the pIC50 with ATF4 was 4.82 to 5.70; in experiment [1], under 5.30. The matching figures for `O=C(COc1ccc(Cl)c(Cl)c1)N[C@H]1CO[C@H](c2nnc(OCCOC(F)(F)F)o2)OC1` [Example 9, 2-(3,4-dichlorophenoxy)-N-[trans-2-{5-[2-(trifluoromethoxy)ethoxy]-1,3,4-oxadiazol-2-yl}-1,3-dioxan-5-yl]acetamide]: 6.30 to 9.00 and under 5.30.

In the case of `O=C(COc1ccc(Cl)c(F)c1)N[C@H]1CO[C@@H](c2cn(-c3ccc(Cl)cc3)nn2)OC1` [Example 3, 2-(4-chloro-3-fluorophenoxy)-N-[cis-2-[1-(4-chlorophenyl)-1H-1,2,3-triazol-4-yl]-1,3-dioxan-5-yl]acetamide], the pIC50 with ATF4 was 4.82 to 5.70. Consider `O=C(COc1ccc(Cl)c(F)c1)N[C@H]1CO[C@H](c2cn(-c3ccc(Cl)cc3)nn2)OC1` [Example 4, 2-(4-chloro-3-fluorophenoxy)-N-[trans-2-[1-(4-chlorophenyl)-1H-1,2,3-triazol-4-yl]-1,3-dioxan-5-yl]acetamide], for which the negative logarithm of the IC50 (pIC50) in the experiment with ATF4 is 5.70 to 6.30. In the case of `O=C(COc1ccc(Cl)c(F)c1)N[C@H]1CO[C@H](c2nnc(OCCOC(F)(F)F)o2)OC1` [Example 6, 2-(4-chloro-3-fluorophenoxy)-N-[trans-2-{5-[2-(trifluoromethoxy)ethoxy]-1,3,4-oxadiazol-2-yl}-1,3-dioxan-5-yl]acetamide], the values for the pIC50 (in the experiment on ATF4; in experiment [1]) were 6.30 to 9.00 and under 5.30, respectively. For `O=C(COc1ccc(Cl)c(F)c1)N[C@H]1CO[C@H](c2nnc([C@H]3C[C@@H](OC(F)(F)F)C3)o2)OC1` [Example 2, 2-(4-chloro-3-fluorophenoxy)-N-[trans-2-{5-[cis-3-(trifluoromethoxy)cyclobutyl]-1,3,4-oxadiazol-2-yl}-1,3-dioxan-5-yl]acetamide], in that order: 6.30 to 9.00 and under 5.30. `O=C(COc1ccc(Cl)c(F)c1)N[C@H]1CO[C@H](c2nnc(N3CC(OC(F)(F)F)C3)o2)OC1` [Example 7, 2-(4-chloro-3-fluorophenoxy)-N-[trans-2-{5-[3-(trifluoromethoxy)azetidin-1-yl]-1,3,4-oxadiazol-2-yl}-1,3-dioxan-5-yl]acetamide]: the pIC50 in the experiment with ATF4 is 6.30 to 9.00; in experiment [1], under 5.30. Regarding `O=C(COc1ccc(Cl)c(F)c1)N[C@H]1CO[C@H](c2nnc(-c3ccc(Cl)cc3)o2)OC1` [Example 1, 2-(4-chloro-3-fluorophenoxy)-N-[trans-2-[5-(4-chlorophenyl)-1,3,4-oxadiazol-2-yl]-1,3-dioxan-5-yl]acetamide], the pIC50 with ATF4 is 6.30 to 9.00.
